Assays:
Leukozytenmigration = test: Inhibition of leukocyte migration, drug-soaked sponge implanted under the dorsal skin of rats; format: in vivo, Ratten; conditions: Dosis, lokal 10 mg/Ratte; sponge soaked with compound under the dorsal skin
Excerpt: Die erfindungsgemäßen Sulfenamide sind auch […] wirksam. Diese Wirkung wird durch die Messung der Hemmung der Leukozytenmigration nach an sich bekannten Methoden nachgewiesen (vgl. Higgs et al., Biochemical Pharmacology 28, 1959 (1979) und Eur. J. Pharmacol. 66, 81 (1980)). In der nachfolgenden Tabelle 2 sind die Wirkungen einiger beispielhafter Sulfenamide nach lokaler Applikation, durch Einführen eines mit Wirkstoff getränkten Schwämmchens unter die Rückenhaut von Ratten, zusammengefaßt.

Plättchenlipoxygenase = target: T1, Plättchenlipoxygenase (Homo sapiens, UniProt P18054); test: Inhibition of platelet lipoxygenase (HETE synthesis), metabolism of radiolabelled arachidonic acid in washed human platelets; format: cell-based; conditions: HETE-Synthese, gewaschene Humanthrombozyten; lowest concentration giving at least 50 % inhibition
T1 construct: der Metabolismus radioaktiv markierter Arachidonsäure an gewaschenen Humanthrombozyten herangezogen; endogenous in cells; host or cells: washed human platelets
T1 sequence (P18054 1-663): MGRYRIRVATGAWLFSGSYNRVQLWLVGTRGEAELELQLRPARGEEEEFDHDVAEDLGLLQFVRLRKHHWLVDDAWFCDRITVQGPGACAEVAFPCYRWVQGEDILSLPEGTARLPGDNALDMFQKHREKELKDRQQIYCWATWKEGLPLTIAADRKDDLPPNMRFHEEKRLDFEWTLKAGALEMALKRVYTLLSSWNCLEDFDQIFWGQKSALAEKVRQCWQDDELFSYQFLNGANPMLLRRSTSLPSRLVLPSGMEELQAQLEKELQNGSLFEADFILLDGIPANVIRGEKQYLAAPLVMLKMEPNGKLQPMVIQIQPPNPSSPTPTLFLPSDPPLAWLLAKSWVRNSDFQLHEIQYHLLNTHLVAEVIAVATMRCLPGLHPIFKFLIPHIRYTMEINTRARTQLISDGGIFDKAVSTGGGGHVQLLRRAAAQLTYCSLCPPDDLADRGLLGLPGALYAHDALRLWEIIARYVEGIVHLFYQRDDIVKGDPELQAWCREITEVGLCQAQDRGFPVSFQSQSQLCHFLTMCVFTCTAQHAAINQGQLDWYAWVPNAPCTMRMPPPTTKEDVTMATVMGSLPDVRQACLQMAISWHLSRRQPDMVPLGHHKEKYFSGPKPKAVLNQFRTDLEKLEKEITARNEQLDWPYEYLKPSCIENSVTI
Excerpt: Der Nachweis der lipoxygenasehemmenden Eigenschaften der Sulfenamide erfolgt analog der Methode von Bailey et al., J. Biol. Chem. 255, 5996, (1980) und nach Blackwell und Flower, Brostaglandins 16, 417 (1979). Bei dieser Testmethode wird der Metabolismus radioaktiv markierter Arachidonsäure an gewaschenen Humanthrombozyten herangezogen. Bei diesem in vitro Test werden die radioaktiv markierten Metaboliten aus dem Reaktionsansatz extrahiert und dünnschichtchromatographisch getrennt. Das Autoradiogramm wird am Dünnschicht-Scanner ausgewertet. Bei diesen Testbedingungen werden die markierten Metaboliten von der nicht umgesetzten Arachidonsäure getrennt und sind anschließend quantitativ auswertbar. Die Verteilung der Radioaktivität auf die während der Metabolisierung gebildeten Cyclooxygenaseprodukte Thromboxan B2 (TXB2) und 12-Hydroxy-5,8,10-heptadekatriensäure (HHT) bzw. das Lipoxygenaseprodukt 12-Hydroxy-5,8,11,14-eikosatetraensäure (HETE) unter dem Einfluß der Inhibitoren stellt ein Maß für die Hemmung der Enzyme dar.
Die Lipoxygenasehemmung der erfindungsgemäßen Sulfenamide läßt sich an der Hemmung der HETE-Synthese messen.. Es zeigt sich, daß die Synthese von TXB2und von HHT unbeeinflußt bleibt, während der Arachidonsäureumsatz abnimmt. Wie aus der nachfolgenden Tabelle ersichtlich ist, bewirken die Sulfenamide eine signifikante Hemmung der Plättchenlipoxygenase (HETE-Synthese).
Hemmung der Plättchenlipoxygenase (HETE-Synthese)

Row | Minimale effektive Hemmkonzen-zentration (mindestens 50 % Hemmung) (Plättchenlipoxygenase) | SMILES | Hemmung der Leukozyten-migration (Kontrolle = 0 %) (Leukozytenmigration)
1 | 10^-6 g/ml | Cc1nsc(NSc2ccc(Cl)cc2)n1 [Beispiel 17] | 53%
2 | 10^-5 g/ml | Clc1ccc(SNc2ccccn2)cc1 [Beispiel 23] | –
3 | 3e-06 g/mL | CCCc1nsc(NSc2ccccc2)n1 [Beispiel 19] | –
4 | 10^-6 g/ml | Cc1nc(NSc2ccccc2)ns1 [Beispiel 18] | –
5 | 3e-06 g/mL | Cc1nsc(NSc2ccccc2)n1 [Beispiel 16] | 67%
6 | 3e-06 g/mL | CCCc1nsc(NSc2ccc(Cl)cc2)n1 [Beispiel 20] | –
7 | 3e-06 g/mL | O=C1C(Sc2ccccc2)C(NSc2ccccc2)=NN1c1ccccc1 (stereo not drawn) [Beispiel 24] | –

Second part, the compound before the results:

Row | SMILES | Minimale effektive Hemmkonzen-zentration (mindestens 50 % Hemmung) (Plättchenlipoxygenase) | Hemmung der Leukozyten-migration (Kontrolle = 0 %) (Leukozytenmigration)
8 | COC(=O)c1ccc(SNc2nc[nH]n2)cc1 [Beispiel 30] | – | 31%
9 | c1ccc(SNc2nc[nH]n2)cc1 [Beispiel 11] | – | 76%
10 | Clc1ccc(SNc2nc(-c3ccccc3)ns2)cc1 [Beispiel 13] | 10^-6 g/ml | –
11 | Clc1ccc(SNc2nnc(N3CCOCC3)s2)cc1 [Beispiel 37] | – | 22%
12 | CC(C)(C)c1ccc(SNc2ncccn2)cc1 [Beispiel 6] | 10^-6 g/ml | –
13 | Clc1ccc(SNc2nc[nH]n2)cc1 [Beispiel 10] | 3e-06 g/mL | –
14 | c1ccc(SNc2nc(-c3ccccc3)ns2)cc1 [Beispiel 12] | 3e-06 g/mL | 35%
15 | Clc1ccc(SNc2ncccn2)cc1 [Beispiel 5] | 10^-6 g/ml | –
16 | FC(F)(F)c1cc(SNc2nc[nH]n2)ccc1Cl [Beispiel 28] | – | 29%
17 | Clc1c(Cl)c(Cl)c(SNc2ncccn2)c(Cl)c1Cl [Beispiel 4] | 10^-6 g/ml | –
18 | Cc1nnc(NSc2ccccc2)s1 [Beispiel 25] | – | 80%
19 | Cc1nnc(NSc2ccc(Cl)cc2)s1 [Beispiel 39] | – | 60%
20 | c1ccc(SNc2ncccn2)cc1 [Beispiel 2] | 10^-6 g/ml | 45%
